Assay results from patent publication US20210402016A1, “RADIOLABELED BOMBESIN-DERIVED COMPOUNDS FOR IN VIVO IMAGING OF GASTRIN-RELEASING PEPTIDE RECEPTOR (GRPR) AND TREATMENT OF GRPR-RELATED DISORDERS” (Provincial Health Services Authority, priority 2018, published 2021).
“And” between values parts separate entries of the source, which are not always exact repeats. Equal values may be shown once.

Assays:
PC-3 cells = experiment: Fluorometric calcium release assay (FLIPR Calcium 6); type: cell-based, human
Method: Calcium release assays were performed using a FLIPR Calcium 6 assay kit (Molecular Devices) according to published procedures (26). Briefly, 5×10^4 PC-3 cells were seeded overnight in 96-well clear bottom black plates. The growth medium was replaced with loading buffer containing a calcium-sensitive dye and incubated for 30 min at 37° C. The plate was placed in a FlexStation 3 microplate reader (Molecular Devices) and baseline fluorescent signals were acquired for 15 sec. […] The relative fluorescence unit (RFU=Max-Min) was used to determine the agonistic/antagonistic properties.

human GRPR = biological target: T1, human GRPR (Homo sapiens, UniProt P30550); experiment: Competition binding assay, displacement of [^125I-Tyr^4]Bombesin on PC-3 cells
T1 construct: endogenous in cells; host or cells: PC-3 human prostate adenocarcinoma cells (whole cells)
T1 sequence (P30550 whole entry): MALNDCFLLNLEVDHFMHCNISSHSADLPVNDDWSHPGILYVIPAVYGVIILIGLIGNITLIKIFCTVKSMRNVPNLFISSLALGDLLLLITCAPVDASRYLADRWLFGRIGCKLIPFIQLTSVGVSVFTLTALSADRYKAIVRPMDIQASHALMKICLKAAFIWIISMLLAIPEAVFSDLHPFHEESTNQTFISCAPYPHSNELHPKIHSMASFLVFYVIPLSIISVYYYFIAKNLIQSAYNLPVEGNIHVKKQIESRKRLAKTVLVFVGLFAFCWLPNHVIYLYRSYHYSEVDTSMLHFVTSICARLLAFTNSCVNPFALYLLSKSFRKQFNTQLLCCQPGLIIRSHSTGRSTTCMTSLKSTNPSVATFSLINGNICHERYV
Method: Cells were incubated 30-60 min at 37° C.

GRPR = biological target: T2, GRPR (Mus musculus, UniProt P21729); details: determined using Swiss 3T3 cells; read-out: Reported Ki value; cited from earlier work
T2 construct: the latter value was determined using Swiss 3T3 cells (17); host or cells: Swiss 3T3 cells
T2 sequence (P21729 whole entry): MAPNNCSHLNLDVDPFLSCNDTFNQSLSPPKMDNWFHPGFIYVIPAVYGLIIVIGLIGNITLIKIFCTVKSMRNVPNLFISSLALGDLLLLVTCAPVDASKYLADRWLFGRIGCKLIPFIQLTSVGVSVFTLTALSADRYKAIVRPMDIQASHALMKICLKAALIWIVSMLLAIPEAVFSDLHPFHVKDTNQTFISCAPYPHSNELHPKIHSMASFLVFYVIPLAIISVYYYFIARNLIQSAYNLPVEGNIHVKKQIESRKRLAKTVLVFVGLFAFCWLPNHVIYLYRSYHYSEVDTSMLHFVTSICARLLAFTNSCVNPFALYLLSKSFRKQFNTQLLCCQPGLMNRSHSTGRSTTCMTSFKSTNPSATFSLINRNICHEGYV

[1] = test system: nude mice bearing PC-3 tumors; details: Dalm et al.; cited from earlier work
[2] = test system: PC-3 xenograft bearing mice; experiment: Biodistribution in PC-3 tumor-bearing NRG mice (Example 1); type: in vivo
Method: The mice were sacrificed by CO2 inhalation at 30 min, 1 h, and 2 h p.i. Blood was collected by cardiac puncture. Organs/tissues were harvested, rinsed with PBS, blotted dry, and weighed. The activity in tissues was assayed by gamma counter and expressed as the percentage injected dose per gram of tissue (% ID/g).

[3] = test system: PC-3 xenograft bearing mice; details: PET/CT, PC-3 tumor-bearing mice
Method: Animal experiments were approved by the Animal Ethics Committee of the University of British Columbia. Male NOD.Cg-Rag1^tm1Mom∥2rg^tm1Wjl/SzJ (NRG) mice obtained from an in-house colony were subcutaneously inoculated with 5×10^6 PC-3 cells (100 μL; 1:1 PBS/Matrigel), and tumors were grown for 2 to 3 weeks.
Mice were sedated and scanned (Siemens Inveon microPET/CT) with body temperature maintained by heating pad. […] PET data were acquired in list mode, reconstructed using 3-dimensional ordered-subsets expectation maximization (2 iterations) followed by a fast maximum a priori algorithm (18 iterations) with CT-based attenuation correction. Images were analyzed using the Inveon Research Workplace software (Siemens Healthineers).

Nc1ncnc2c1ncn2[C@@H]1O[C@H](COP(=O)(O)OP(=O)(O)OP(=O)(O)O)[C@@H](O)[C@H]1O [ATP, adenosine triphosphate, reference compound]
Intracellular calcium release (PC-3 cells; 50 nM): 511±45.5 RFUs

[D-Phe^6, Leu-NHEt^13, des-Met^14]Bombesin(6-14) [reference compound]
Intracellular calcium release (PC-3 cells; 5 nM): 22.3±16.8 RFUs | Intracellular calcium release (PC-3 cells; 50 nM): 42.0±20.4 RFUs

CC(C)CC(CC(C)C)NC(=O)[C@H](Cc1c[nH]cn1)NC(=O)CNC(=O)[C@@H](NC(=O)[C@H](C)NC(=O)[C@H](Cc1c[nH]c2ccccc12)NC(=O)[C@H](CCC(N)=O)NC(=O)[C@@H](Cc1ccccc1)NC(=O)COCC(=O)Nc1ccc(CNC(=O)CN2CCN(CC(=O)O)CCN(CC(=O)O)CCN(CC(=O)O)CC2)cc1)C(C)C [Ga-NeoBOMB1, reference compound]
Ki (human GRPR): 1.71 ± 0.28 nM

D-Phe-Gln-Trp-Ala-Val-Gly-His-Leu-L-Tac-NH2 [RC-3950-II]
Ki (GRPR): 0.078 nM

CC(C)CC(CC(C)C)NC(=O)[C@H](Cc1cnc[nH]1)NC(=O)CNC(=O)[C@@H](NC(=O)[C@H](C)NC(=O)[C@H](Cc1c[nH]c2ccccc12)NC(=O)[C@H](CCC(N)=O)NC(=O)[C@@H](Cc1ccccc1)NC(=O)COCC(=O)Nc1ccc(CNC(=O)CN2CCN(CC(=O)O)CCN(CC(=O)O)CCN(CC(=O)O)CC2)cc1)C(C)C [^68Ga-NeoBOMB1, metal not drawn, reference compound]
Uptake in pancreas [1]: ~15 % ID/g | Uptake in tumor [1]: ~10 % ID/g | Biodistribution PC-3 Tumor, Mean ([2]; 30 min p.i.): 9.60±0.99 % ID/g | Biodistribution Pancreas, Mean ([2]; 30 min p.i.): 95.7±12.7 % ID/g | Biodistribution PC-3 Tumor, Mean ([2]; 60 min p.i.): 9.83±1.48 % ID/g | Biodistribution Pancreas, Mean ([2]; 60 min p.i.): 122±28.4 % ID/g and 123±28.4 % ID/g | Biodistribution Blood, Mean ([2]; 120 min p.i.): 0.45±0.10 % ID/g | Biodistribution PC-3 Tumor, Mean ([2]; 120 min p.i.): 12.1±3.72 % ID/g | Biodistribution Pancreas, Mean ([2]; 120 min p.i.): 139±26.8 % ID/g | Excretion / clearance pathway [3]: both the hepatobiliary and renal pathways
